Entries after “also recorded” stand apart in the source; their conditions may differ.
Key:
women suffering from FSD [1] = tested on: women suffering from FSD
Description: An unmasked and a masked version of the Emotional Stroop Task comparing color-naming latencies on neutral and erotic words were used. In both the unmasked and the masked condition, eight erotic and neutral words are presented in different colors (i.e., red, green, blue and yellow). An extra set of stimuli consisting of letter strings was used for practice trials. Subjects were instructed to ignore the content of the words and to name the color of the words as quickly as possible (in the masked condition, the color of the mask has to be named). Each trial consisted of a fixation point which is shown for 750 ms, followed by the target stimulus (the colored neutral or erotic word). In the masked condition, the word picture is presented for about 24 ms and then masked by randomly cut, reassembled letters in the same color. A microphone connected to a voice-level detector was placed in front of the subject. Initiation of vocal response was registered by the computer's clock and terminated the target presentation (with a no-response maximum of 3000 ms). Thirty-two neutral words and thirty-two erotic words were presented blocked. The same words were used for each test, however, the sequence of words and colors differed all eight times this task was used.
To test for associations with changes in attentional processes, we used the StroopRT as the measurement point. StroopRT is the difference in mean reaction times on color naming of the neutral and the sexual words.

[2] = tested on: healthy sexually functional women; parameters: species or system human; details: in vivo
Protocol: In a recently conducted experiment (not published) in healthy sexually functional women, we used a delayed measurement design in which subjects ingested one dosage of testosterone (0.5 mg sublingual) or placebo and after four hours, underwent fMRI while watching neutral and erotic videos. Hereafter, subjects were conducted to a laboratory where their VPA in response to neutral and erotic videos was measured. […] Because of testosterone's delayed effect on enhancing VPA, we expected enhancement of these “erotic” structures in this fMRI study.

[3] = Plasma level of testosterone after sublingual administration; details: single sublingual dose; of short duration
[4] = tested on: healthy sexually functional women; details: 0.5 mg sublingual
Protocol: In a recently conducted experiment (not published) in healthy sexually functional women, we used a delayed measurement design in which subjects ingested one dosage of testosterone (0.5 mg sublingual) or placebo and after four hours, underwent fMRI while watching neutral and erotic videos. Hereafter, subjects were conducted to a laboratory where their VPA in response to neutral and erotic videos was measured.

[5] = tested on: women suffering from Female Sexual Dysfunction; assay: Sexual desire, genital sensations and subjective sexual arousal in women with FSD; format: in vivo, human
Description: Attentional engagement is an important function for normal human sexuality.

[6] = tested on: sexually functional women; assay: Vaginal responsiveness to erotic films after a single sublingual dose in sexually functional women
women suffering from FSD [7] = assay: Vaginal Pulse Amplitude (VPA) response to erotic film in women with FSD, placebo controlled cross-over; format: in vivo, human; details: for Vaginal Pulse Amplitude during exposure to erotic stimuli (vaginal arousability) compared with placebo: testosterone 0.5 mg sublingual, Vardenafil 10 mg, four hours after medication; for increase in VPA between neutral and erotic films, before medication (trial 1) versus after medication (trial 4): within drug condition
Description: Fourteen women with a heterosexual orientation (mean age: 40.6 years; sd: 10.4; premenopausal n=8, postmenopausal n=6) who have been experiencing FSD (i.e., low sexual desire, low sexual arousal or decreased orgasm potency) for at least six months prior to study entry, participated in this study. Subjects in fertile age used contraceptives (IUDs, sterilization, oral contraceptives except contraceptives containing anti-androgens). A pregnancy test was part of the procedure. Subjects were interviewed and examined by a gynecologist to exclude pregnancy or breast feeding, vaginal infections, major operations to the vagina and/or vulva or unexplained gynecological complaints. […] Cardiovascular condition was tested and ECG was checked for significant abnormalities. Standard blood chemistry and hematology tests were performed. […] Subjects could not make appointments during their period of menstruation.
Each subject underwent the four different drug treatments (i.e., PDE5 inhibitor, testosterone, PDE5 inhibitor+testosterone and placebo) at four separate experimental days. The four experimental days were separated by at least a three-day period.
During each day of drug manipulation, subjects underwent the following measurements: • −1:00 hours: Emotional Stroop Task • −0:15 hours: Trial 1 • 0:00 hours: Intake drugs • 0:05 hours: Trial 2 • 2:45 hours: Trial 3 • 4:15 hours: Trial 4
Each day started with a physical examination (measurements of vital signs, blood pressure, heart rate, temperature and respiration rate). Blood samples (8 ml) were taken for hormone analyses. Subjects then were seated in the sound attenuated, dimly lit experimental room. In order to make this room less “sterile,” geographic posters were hung on the walls and an air perfumer was placed behind the subjects. The subjects then executed the emotional Stroop task (15 minutes). The experimenter brought the vaginal probe and the subject was left alone in the room to insert the probe. The subject was instructed to sit as quietly as possible while viewing the film fragments. A ten-minute neutral fragment was followed by a five-minute erotic film fragment. After these baseline measurements, the subjects took medication: testosterone (0.5 mg or placebo) sublingually, with cyclodextrins as carrier and Vardenafil (10 mg or placebo) hidden in a capsule. The medication was followed by another set of neutral (five minutes) and erotic (five minutes) film fragments. The subjects removed the vaginal probe and were taken to a waiting room for a pause of two hours. During this pause, they could consume their lunch. Unlimited coffee and tea were available. This pause was followed by a third set of neutral (five minutes) and erotic (five minutes) film fragments.
Again subjects had to wait for two hours so that the last VPA measurement was taken four hours after medication. This last film-trial (neutral, erotic film fragments) was followed by a second presentation of the emotional Stroop. The experimental day ended with a short physical examination including drawing of a blood sample (8 ml for hormone analyses) and collection of AE and SAE.
During the testosterone condition, one subject became nauseated watching the erotic film and decided not to participate further that day. For the psychophysiological evaluation, the VPA (Vaginal Pulse Amplitude) is used. The VPA reflects phasic changes in the blood volume corresponding with each heartbeat; higher levels indicate higher levels of blood flow. The dependent variable used is the amplitude of the pulse wave. Before the mean VPA was calculated, the raw signal (sample rate was 20 Hz) was digitally bandpass filtered with a Butterworth filter (−3 dB cutoff frequency range 0.7-1.5 Hz; 40 dB down/octave). Movement artifacts were detected by visual inspection of the signal and removed manually. Hereafter, the amplitude was measured as the distance between the top and bottom of a pulse wave. […]

[8] = typical value; cited from earlier work
[9] = tested on: sexually functional women; details: cited from earlier work
[10] = tested on: hypogonadotropic hypogonadal females; assay: Vaginal responsiveness during oral testosterone substitution; format: in vivo, human; details: dosed each morning
Protocol: An important aspect of sexual motivation is physiological sexual responding. […] In both studies, subjects received testosterone each morning, but patients in the first experiment were tested in the afternoon and patients in the second experiment in the morning. The different outcomes on physiological responding between these experiments may be caused by a time-dependent effect of testosterone on vaginal arousal.

C[C@]12CC[C@H]3[C@@H](CCC4=CC(=O)CC[C@@]43C)[C@@H]1CC[C@@H]2O [testosterone, 17-β-hydroxyandrost-4-en-3-one]
StroopRT (attention for sexual stimuli), not-abused subjects (women suffering from FSD [1]; masked condition, decrease = attention for sexual stimuli increases): decreases
StroopRT (attentional bias for sexual stimuli), sexually abused subjects (women suffering from FSD [1]; masked condition, increase = bias away from sexual stimuli): increases
attentional engagement (or withdrawal) for sexual cues, as compared with placebo and/or a PDE5 inhibitor (women suffering from FSD [1]; women with FSD): increase
activation of septum and left dorsolateral PFC (fMRI) [2]: very significant increase
plasma levels of testosterone after intake [3]: sharp increase
relative change in VPA as compared with the placebo, after fMRI procedure [4]: smaller
sexual desire, genital sensations / subjective sexual arousal compared with placebo [5]: no effect
vaginal responsiveness when exposed to visual sexual stimuli ([6]; eight sexually functional women, single sublingual dose versus placebo): striking increase
time lag between plasma testosterone peak and increase in vaginal responsiveness ([6]; sexually functional women, sublingual): three to four and a half
VPA to erotic stimuli over trials, sexually abused subjects (women suffering from FSD [7]; women with FSD sexually abused during childhood, with or without testosterone): no increase
VPA response to the erotic film, not-abused subjects, testosterone versus no-testosterone conditions (women suffering from FSD [7]; women with FSD, not abused): increases
increase in VPA from before to after measurement, drug conditions containing the steroid versus without the steroid (women suffering from FSD [7]; women with FSD, interaction F(1.12)=5.75, p<0.04, pooled steroid conditions): significantly higher
Vaginal Pulse Amplitude during exposure to erotic stimuli (vaginal arousability) compared with placebo (women suffering from FSD [7]; women with FSD): no effect; also recorded: insufficient for a significant increase
increase in VPA between neutral and erotic films, before medication (trial 1) versus after medication (trial 4) (women suffering from FSD [7]; women with FSD): insignificant

CCCc1nc(C)c2c(=O)nc(-c3cc(S(=O)(=O)N4CCN(CC)CC4)ccc3OCC)[nH]n12.Cl [Vardenafil, piperazine, 1-[[3-(1,4-dihydro-5-methyl-4-oxo-7-propylimidazo[5,1-f][1,2,4]triazin-2-yl)-4-ethoxyphenyl]sulfonyl]-4-ethyl-, monohydrochloride]
sexual desire, genital sensations / subjective sexual arousal compared with placebo [5]: no effect
time to peak plasma concentration after administration [8]: about one
Vaginal Pulse Amplitude during exposure to erotic stimuli (vaginal arousability) compared with placebo (women suffering from FSD [7]; women with FSD, listed as PDE5 inhibitor, monohydrochloride): no effect
Vaginal Pulse Amplitude during exposure to erotic stimuli (vaginal arousability) compared with placebo (women suffering from FSD [7]; women with FSD, monohydrochloride): did not lead to a significant difference
increase in VPA between neutral and erotic films, before medication (trial 1) versus after medication (trial 4) (women suffering from FSD [7]; women with FSD): insignificant

CCCc1nn(C)c2c(=O)[nH]c(-c3cc(S(=O)(=O)N4CCN(C)CC4)ccc3OCC)nc12.O=C(O)CC(O)(CC(=O)O)C(=O)O [sildenafil, 1-[[3-(6,7-dihydro-1-methyl-7-oxo-3-propyl-1Hpyrazolo[4,3-d]pyrimidin-5-yl)-4-ethoxyphenyl]sulfonyl]-4-methylpiperazine citrate]
sexual performance [9]: improves

CCCCCCCCCCC(=O)O[C@H]1CC[C@H]2[C@@H]3CCC4=CC(=O)CC[C@]4(C)[C@H]3CC[C@]12C [testosterone undecanoate]
vaginal responsiveness, first group ([10]; 40 mg orally per day, eight weeks, tested in the afternoon): enhanced
vaginal responsiveness, another group (unpublished data) ([10]; tested in the morning): not found

Reference: patent US8227453B2, “Pharmaceutical formulations and uses thereof in the treatment of female sexual dysfunction” (Emotional Brain B.V., priority 2004, dated 2012)
